Patent publication US6677310B1, “Ring-expanded nucleosides and nucleotides” (Nabi, priority 1999, dated 2004)

Columns and labels:
Assay type in all cases: cell-based, human
NCI-H460 = NCI-H460 (Non-Small Cell Lung Cancer), 48 h; for CC50: read-out: LC50 (the source's name)
MALME-3M = assay: SRB anti-cancer assay, Melanoma; conditions: MALME-3M (Melanoma), 48 h
UO-31 = assay: SRB anti-cancer assay, Renal Cancer; conditions: UO-31 (Renal Cancer), 48 h; for CC50: read-out: LC50 (the source's name)
NCI/ADR-RES = assay: SRB anti-cancer assay, Breast Cancer; conditions: 48 h; for CC50: read-out: LC50 (the source's name)
NCI-H23 = NCI-H23 (Non-Small Cell Lung Cancer), 48 h; for CC50: read-out: LC50 (the source's name)
DU-145 = assay: SRB anti-cancer assay, Prostate Cancer; conditions: DU-145 (Prostate Cancer), 48 h; for CC50: read-out: LC50 (the source's name)
OVCAR-4 = assay: SRB anti-cancer assay, Ovarian Cancer; conditions: OVCAR-4 (Ovarian Cancer), 48 h; for CC50: read-out: LC50 (the source's name)
OVCAR-8 = assay: SRB anti-cancer assay, Ovarian Cancer; conditions: OVCAR-8 (Ovarian Cancer), 48 h
SK-OV-3 = assay: SRB anti-cancer assay, Ovarian Cancer; conditions: SK-OV-3 (Ovarian Cancer), 48 h; for CC50: read-out: LC50 (the source's name)
SF-268 = assay: SRB anti-cancer assay, CNS Cancer; conditions: SF-268 (CNS Cancer), 48 h; for CC50: read-out: LC50 (the source's name)
CAKI-1 = assay: SRB anti-cancer assay, Renal Cancer; conditions: CAKI-1 (Renal Cancer), 48 h; for CC50: read-out: LC50 (the source's name)
MDA-MB-435 = assay: SRB anti-cancer assay, Breast Cancer; conditions: MDA-MB-435 (Breast Cancer), 48 h; for CC50: read-out: LC50 (the source's name)
SNB-75 = assay: SRB anti-cancer assay, CNS Cancer; conditions: SNB-75 (CNS Cancer), 48 h
SW-620 = assay: SRB anti-cancer assay, Colon Cancer; conditions: SW-620 (Colon Cancer), 48 h; for CC50: read-out: LC50 (the source's name)
CCRF-CEM = assay: SRB anti-cancer assay, Leukemia; conditions: 48 h; for CC50: read-out: LC50 (the source's name)
OVCAR-3 = assay: SRB anti-cancer assay, Ovarian Cancer; conditions: OVCAR-3 (Ovarian Cancer), 48 h; for CC50: read-out: LC50 (the source's name)
SF-295 = assay: SRB anti-cancer assay, CNS Cancer; conditions: SF-295 (CNS Cancer), 48 h; for CC50: read-out: LC50 (the source's name)
HOP-62 = HOP-62 (Non-Small Cell Lung Cancer), 48 h
UACC-62 = assay: SRB anti-cancer assay, Melanoma; conditions: UACC-62 (Melanoma), 48 h; for CC50: read-out: LC50 (the source's name)
SK-MEL-28 = assay: SRB anti-cancer assay, Melanoma; conditions: SK-MEL-28 (Melanoma), 48 h
SN12C = assay: SRB anti-cancer assay, Renal Cancer; conditions: 48 h; for CC50: read-out: LC50 (the source's name)
A549/ATCC = A549/ATCC (Non-Small Cell Lung Cancer), 48 h; for CC50: read-out: LC50 (the source's name)
HCC-2998 = assay: SRB anti-cancer assay, Colon Cancer; conditions: HCC-2998 (Colon Cancer), 48 h; for CC50: read-out: LC50 (the source's name)
KM12 = assay: SRB anti-cancer assay, Colon Cancer; conditions: 48 h
MDA-N = assay: SRB anti-cancer assay, Breast Cancer; conditions: 48 h; for CC50: read-out: LC50 (the source's name)
SNB-19 = assay: SRB anti-cancer assay, CNS Cancer; conditions: SNB-19 (CNS Cancer), 48 h; for CC50: read-out: LC50 (the source's name)
COLO 205 = assay: SRB anti-cancer assay, Colon Cancer; conditions: COLO 205 (Colon Cancer), 48 h
OVCAR-5 = assay: SRB anti-cancer assay, Ovarian Cancer; conditions: OVCAR-5 (Ovarian Cancer), 48 h; for CC50: read-out: LC50 (the source's name)
NCI-H226 = NCI-H226 (Non-Small Cell Lung Cancer), 48 h; for CC50: read-out: LC50 (the source's name)

N=c1nc(N)c2ncn([C@@H]3O[C@H](COC(=O)c4ccccc4)[C@@H](OC(=O)c4ccccc4)[C@H]3OC(=O)c3ccccc3)c2c(N)n1 [4,8-Diamino-6H-6-imino-1(2′,3′,5′-tri-O-benzoyl-β-D-ribofuranosyl)imidazo[4,5-e][1,3]diazepine]
GI50 (NCI-H460): 2.52 µM | TGI (NCI-H460): 8.42 µM | CC50 (NCI-H460): 34.7 µM | GI50 (MALME-3M): 3.04 µM | LC50 (MALME-3M): 33.8 µM | TGI (MALME-3M): 8.07 µM | GI50 (UO-31): 6.4 µM | TGI (UO-31): 20.6 µM | CC50 (UO-31): 51.1 µM | GI50 (NCI/ADR-RES): 13.9 µM | TGI (NCI/ADR-RES): 31.5 µM | CC50 (NCI/ADR-RES): 71.4 µM | GI50 (NCI-H23): 12.3 µM | TGI (NCI-H23): 27.7 µM | CC50 (NCI-H23): 62.3 µM | GI50 (DU-145): 8.79 µM | TGI (DU-145): 21.8 µM | CC50 (DU-145): 49.1 µM | GI50 (OVCAR-4): 13.8 µM | TGI (OVCAR-4): 28 µM | CC50 (OVCAR-4): 57 µM | GI50 (OVCAR-8): 4.34 µM | LC50 (50% lethal concentration) (OVCAR-8): > 100 µM | TGI (OVCAR-8): 22.5 µM | GI50 (SK-OV-3): 16.3 µM | TGI (SK-OV-3): 30.5 µM | CC50 (SK-OV-3): 57 µM | GI50 (SF-268): 13.2 µM | TGI (SF-268): 31.3 µM | CC50 (SF-268): 74.2 µM | GI50 (CAKI-1): 12.1 µM | TGI (CAKI-1): 26.8 µM | CC50 (CAKI-1): 59.4 µM | GI50 (MDA-MB-435): 14.9 µM | TGI (MDA-MB-435): 29.8 µM | CC50 (MDA-MB-435): 59.8 µM | GI50 (SNB-75): 12.3 µM | LC50 (concentration killing 50% of cells) (SNB-75): 50.4 µM | TGI (SNB-75): 24.9 µM | GI50 (SW-620): 5.14 µM | TGI (SW-620): 29.5 µM | CC50 (SW-620): > 100 µM | GI50 (CCRF-CEM): 0.125 µM | TGI (CCRF-CEM): 1.84 µM | CC50 (CCRF-CEM): 6.4 µM | GI50 (OVCAR-3): 10.9 µM | TGI (OVCAR-3): 23 µM | CC50 (OVCAR-3): 48.7 µM | GI50 (SF-295): 6.03 µM | TGI (SF-295): 19.6 µM | CC50 (SF-295): 49.2 µM | GI50 (HOP-62): 7.64 µM | LC50 (concentration for 50% net cell kill) (HOP-62): 55.6 µM | TGI (HOP-62): 22.7 µM | GI50 (UACC-62): 15.6 µM | TGI (UACC-62): 33.4 µM | CC50 (UACC-62): 71.5 µM | GI50 (SK-MEL-28): 10.4 µM | LC50 (SK-MEL-28): 65.8 µM | TGI (SK-MEL-28): 26.2 µM | GI50 (SN12C): 6.44 µM | TGI (SN12C): 39.4 µM | CC50 (SN12C): > 100 µM | GI50 (A549/ATCC): 6.44 µM | TGI (A549/ATCC): 30 µM | CC50 (A549/ATCC): > 100 µM | GI50 (HCC-2998): 3.18 µM | TGI (HCC-2998): 6.41 µM | CC50 (HCC-2998): 19.2 µM | GI50 (KM12): 5.5 µM | LC50 (KM12): 53.6 µM | TGI (KM12): 19.4 µM | GI50 (MDA-N): 5.88 µM | TGI (MDA-N): 21.7 µM | CC50 (MDA-N): 58.6 µM | GI50 (SNB-19): 14.7 µM | TGI (SNB-19): 31.6 µM | CC50 (SNB-19): 68.2 µM | GI50 (COLO 205): 1.49 µM | LC50 (COLO 205): 5.55 µM | TGI (COLO 205): 2.87 µM | GI50 (OVCAR-5): 15.7 µM | TGI (OVCAR-5): 30.1 µM | CC50 (OVCAR-5): 57.7 µM | GI50 (NCI-H226): 6.89 µM | TGI (NCI-H226): 25.1 µM | CC50 (NCI-H226): 72.4 µM

N=c1[nH]c(=O)c2ncn([C@@H]3O[C@H](CO)[C@@H](O)[C@H]3O)c2c(=O)[nH]1 [Compound 14-1, 6-Imino-6H-1-β-D-ribofuranosyl-4,5,7,8-tetrahydroimidazo[4,5-e][1,3]diazepine-4,8-dione]
GI50 (NCI-H460): > 100 µM | TGI (NCI-H460): >100 µM | CC50 (NCI-H460): > 100 µM | GI50 (MALME-3M): > 100 µM | LC50 (MALME-3M): > 100 µM | TGI (MALME-3M): >100 µM | GI50 (UO-31): > 100 µM | TGI (UO-31): >100 µM | CC50 (UO-31): > 100 µM | GI50 (NCI/ADR-RES): > 100 µM | TGI (NCI/ADR-RES): >100 µM | CC50 (NCI/ADR-RES): > 100 µM | GI50 (NCI-H23): > 100 µM | TGI (NCI-H23): >100 µM | CC50 (NCI-H23): > 100 µM | GI50 (DU-145): > 100 µM | TGI (DU-145): >100 µM | CC50 (DU-145): > 100 µM | GI50 (OVCAR-4): > 100 µM | TGI (OVCAR-4): >100 µM | CC50 (OVCAR-4): > 100 µM | GI50 (OVCAR-8): > 100 µM | LC50 (50% lethal concentration) (OVCAR-8): > 100 µM | TGI (OVCAR-8): >100 µM | GI50 (SK-OV-3): > 100 µM | TGI (SK-OV-3): >100 µM | CC50 (SK-OV-3): > 100 µM | GI50 (SF-268): > 100 µM | TGI (SF-268): >100 µM | CC50 (SF-268): > 100 µM | GI50 (CAKI-1): > 100 µM | TGI (CAKI-1): >100 µM | CC50 (CAKI-1): > 100 µM | GI50 (MDA-MB-435): > 100 µM | TGI (MDA-MB-435): >100 µM | CC50 (MDA-MB-435): > 100 µM | LC50 (concentration killing 50% of cells) (SNB-75): > 100 µM | TGI (SNB-75): >100 µM | GI50 (SW-620): > 100 µM | TGI (SW-620): >100 µM | CC50 (SW-620): > 100 µM | GI50 (CCRF-CEM): > 100 µM | TGI (CCRF-CEM): >100 µM | CC50 (CCRF-CEM): > 100 µM | GI50 (OVCAR-3): > 100 µM | TGI (OVCAR-3): >100 µM | CC50 (OVCAR-3): > 100 µM | GI50 (SF-295): > 100 µM | TGI (SF-295): >100 µM | CC50 (SF-295): > 100 µM | GI50 (HOP-62): > 100 µM | LC50 (concentration for 50% net cell kill) (HOP-62): > 100 µM | TGI (HOP-62): >100 µM | GI50 (UACC-62): > 100 µM | TGI (UACC-62): >100 µM | CC50 (UACC-62): > 100 µM | GI50 (SK-MEL-28): > 100 µM | LC50 (SK-MEL-28): > 100 µM | TGI (SK-MEL-28): >100 µM | GI50 (SN12C): > 100 µM | TGI (SN12C): >100 µM | CC50 (SN12C): > 100 µM | GI50 (A549/ATCC): > 100 µM | TGI (A549/ATCC): >100 µM | CC50 (A549/ATCC): > 100 µM | GI50 (HCC-2998): > 100 µM | TGI (HCC-2998): >100 µM | CC50 (HCC-2998): > 100 µM | GI50 (KM12): > 100 µM | LC50 (KM12): > 100 µM | TGI (KM12): >100 µM | GI50 (MDA-N): > 100 µM | TGI (MDA-N): >100 µM | CC50 (MDA-N): > 100 µM | GI50 (SNB-19): > 100 µM | TGI (SNB-19): >100 µM | CC50 (SNB-19): > 100 µM | GI50 (COLO 205): > 100 µM | LC50 (COLO 205): > 100 µM | TGI (COLO 205): >100 µM | GI50 (OVCAR-5): > 100 µM | TGI (OVCAR-5): >100 µM | CC50 (OVCAR-5): > 100 µM | GI50 (NCI-H226): > 100 µM | TGI (NCI-H226): >100 µM | CC50 (NCI-H226): > 100 µM
